# Data taken from patent US11274114B2, “Modified mito-metformin compounds and methods of synthesis and use thereof” (THE MEDICAL COLLEGE OF WISCONSIN, INC., priority 2014, dated 2022).
# Values joined by “and” are separate entries in the source; they are usually repeats but may differ in a detail not shown here. Identical values can stand only once.
# Assays:
# MiaPaCa-2 cells [1] = assay: IncuCyte real-time cell proliferation (cell confluence); assay type: cell-based, human
# Protocol: Cell proliferation was measured using a label-free, non-invasive cellular confluence assay employing the IncuCyte™ Live-Cell Imaging Analyzer (Essen Bioscience). This system provides real-time cellular confluence data based on segmentation of high definition phase contrast images. MiaPaCa2 (1,000 cells/well) were seeded overnight on a 96-well plate, placed in an XL-3 incubation chamber maintained at 37 C. and cells photographed and confluence calculated every 2 hr by IncuCyte software. MiaPaCa2 cells were treated with Met (1 and 2 mM) or Mito-Met-C10 (1-2 μM).
# (§1) IncuCyte Analyzer-real time measurement of cell proliferation. The cell proliferation was measured using a label-free, noninvasive cellular confluence assay by IncuCyte Live-Cell Imaging Systems (Essen Bioscience, Ann Arbor, Mich., USA; IncuCyte FLR). This system enables collection of live cell images at 2 h intervals over several days. The IncuCyte Analyzer provides real-time cellular confluence data based on segmentation of high-definition phase-contrast images. The cell proliferation is expressed as an increase in percentage of cell confluence.
# MiaPaCa-2 cells [2] = assay: Clonogenic assay (colony formation, survival fraction); assay type: cell-based, human; conditions: for colony formation: 24 h; for IC50: Homo sapiens, MIA PaCa-2, 24 h, read-out: IC50, colony formation / survival fraction
# Protocol: Clonogenic assay. […] The plates were kept within the incubator and media changed every 3-4 days until the control cells formed sufficiently large clones. The cell survival fractions were calculated as previously described.
# MiaPaCa-2 cells [3] = assay: Oxygen consumption rate in intact cells, Seahorse XF96; assay type: cell-based, human; conditions: for concentration that inhibited OCR: intact MiaPaCa-2, after 24 h treatment and washout; for OCR inhibition: immediately after addition
# Protocol: (§2) Respiratory enzyme activity in intact and permeabilized cells. The mitochondrial function in intact and permeabilized pancreatic cancer cells was measured using a Seahorse XF96 Extracellular Flux Analyzer (Seahorse Bioscience, North Billerica, Mass., USA). Unless specified otherwise, assays in intact cells were performed as previously described. Measurement of mitochondrial respiratory complexes in permeabilized cells was performed according to the manufacturer's instructions (Seahorse Bioscience). Briefly, intact cells were permeabilized using 1 nM Plasma Membrane Permeabilizer (PMP, Seahorse Bioscience) immediately before oxygen consumption rate (OCR) measurement by XF96. The oxygen consumption derived from mitochondrial complex I or complex II activity was measured by providing different substrates to mitochondria, e.g., pyruvate/malate for complex I and succinate for complex II activity. Rotenone, malonate and antimycin A were used as specific inhibitors of mitochondrial complex I, II and III activities, respectively.
# Effects of Met and Mito-Met analogs on mitochondrial bioenergetics in MiaPaCa-2 cells. The oxygen consumption rate (OCR) and the extracellular acidification rate (ECAR) were measured as a readout of mitochondrial function and glycolysis using a Seahorse Bioscience XF96 extracellular flux analyzer. We compared the immediate OCR changes in response to different concentrations (e.g., IC50 or higher values determined by clonogenic assay) of Met, Mito-Met2, Mito-Met6, Mito-Met10, and phenformin (FIG. 13A).
# MiaPaCa-2 cells [4] = assay: Radiosensitization (X-radiation, clonogenic survival); assay type: cell-based, human; conditions: for PDAC radiosensitivity: 24 h pretreatment before X-radiation
# Protocol: MiaPaCa2 cells (1000 cells/well) were cultured in quadruplicate overnight in 96-well plates and changed to fresh medium.
# (§3) Radiation experiments. […] The cells were then treated with X-radiation at a dose of 0, 2, 4, and 6 Gy. The control cells were treated with the same concentration of vehicle (0.1% DMSO) where appropriate. After irradiation, cells were suspended and seeded at various densities (100-8,000 cells per well) in 6-well plates for clonogenic assay as described above. The plates were kept within the incubator and media changed every 3-4 days for 2 weeks. Wells with 10-50 sufficiently large clones were chosen for calculating the cell survival fractions.
# HaCaT cells = assay: IncuCyte cell proliferation in nonmalignant cells; assay type: cell-based; conditions: HaCaT keratinocytes
# Protocol: as §1
# MCF-10A cells [5] = assay: IncuCyte cell proliferation in nonmalignant cells; assay type: cell-based; conditions: MCF-10A breast epithelial cells
# Protocol: as §1
# mitochondrial complex I [6] = molecular target: T1, mitochondrial complex I (Homo sapiens, UniProt O75251+O75306+P03886); assay: Complex I oxygen consumption (pyruvate/malate-driven OCR) in permeabilized cells, Seahorse XF96; assay type: cell-based; design: IC50, complex I oxygen consumption; other: permeabilized MiaPaCa-2, added acutely; conditions: permeabilized MiaPaCa-2, added acutely
# Protocol: as §2
# (§4) The oxygen consumption rate was measured using the permeabilized MiaPaCa-2 cells in MAS buffer supplemented with pyruvate. The use of permeabilized cells avoids differences in cellular uptake of compounds. […] We tested the effect of pretreating cells with Mito-Met10 or Met using the permeabilized model. […]
# Target sequence in this assay (P03886 whole entry): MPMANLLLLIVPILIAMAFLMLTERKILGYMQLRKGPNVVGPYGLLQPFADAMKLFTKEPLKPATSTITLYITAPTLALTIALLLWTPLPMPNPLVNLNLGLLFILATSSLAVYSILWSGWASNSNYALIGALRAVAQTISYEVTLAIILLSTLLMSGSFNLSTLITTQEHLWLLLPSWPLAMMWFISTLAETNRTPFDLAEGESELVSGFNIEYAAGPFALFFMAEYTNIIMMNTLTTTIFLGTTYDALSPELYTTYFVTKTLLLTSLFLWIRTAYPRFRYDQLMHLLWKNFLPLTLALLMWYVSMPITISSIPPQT
# Target sequence in this assay (O75251 39-213): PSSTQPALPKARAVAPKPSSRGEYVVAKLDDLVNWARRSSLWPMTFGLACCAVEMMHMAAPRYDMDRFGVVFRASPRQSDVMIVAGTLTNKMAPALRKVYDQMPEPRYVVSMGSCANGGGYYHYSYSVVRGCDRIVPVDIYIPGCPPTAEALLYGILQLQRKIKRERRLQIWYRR
# Target sequence in this assay (O75306 34-463): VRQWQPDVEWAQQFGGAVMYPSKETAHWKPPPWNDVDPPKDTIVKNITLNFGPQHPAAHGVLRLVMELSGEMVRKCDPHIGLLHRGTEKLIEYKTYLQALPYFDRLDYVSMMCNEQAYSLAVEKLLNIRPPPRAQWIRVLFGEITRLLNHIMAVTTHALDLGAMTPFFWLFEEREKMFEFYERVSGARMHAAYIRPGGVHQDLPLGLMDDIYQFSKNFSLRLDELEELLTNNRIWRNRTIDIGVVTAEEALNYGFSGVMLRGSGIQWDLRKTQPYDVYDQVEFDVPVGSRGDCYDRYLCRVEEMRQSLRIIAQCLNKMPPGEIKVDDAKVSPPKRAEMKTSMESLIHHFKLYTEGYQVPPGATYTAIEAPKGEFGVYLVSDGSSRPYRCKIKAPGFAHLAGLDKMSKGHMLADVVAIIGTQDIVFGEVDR
# mitochondrial complex I [7] = molecular target: T1, mitochondrial complex I; assay: as above; assay type: cell-based; conditions: 24 h treatment, then permeabilized
# Protocol: as §2, §4
# Target sequence in this assay (O75251 39-213): as the sequence (O75251 39-213) above
# Target sequence in this assay (O75306 34-463): as the sequence (O75306 34-463) above
# Target sequence in this assay (P03886 whole entry): as the sequence (P03886 whole entry) above
# AMPK = AMPK activation immunoblot (phospho-Thr-172 / total AMPK); assay type: cell-based, human; conditions: MiaPaCa-2
# Protocol: In this example, the inventors have shown that the mito-met compounds of the present invention cause an increased AMPK activation in cancer cells. In preliminary experiments (FIG. 4), human MiaPaCa2 and murine FC1199 PDAC cells treated 30 min with 1 μM mito-met (MM), 1 mM Met, or the oligomycin positive control were lysed, and proteins size-separated on SDS-PAGE, transferred to PVDF, and probed with an antibody to phosphorylated AMPK Thr-172.
# Immunoblotting. MiaPaCa-2 PDAC cells (1×10^6) were plated to 80% confluency in 60 mm dishes and then serum-starved for 5 hours. […] Cells were stimulated with oligomycin as a positive control. After stimulation, cells were washed twice in cold PBS and lysed using a modified RIPA buffer. Lysates were normalized for protein concentration, size separated using reducing SDS-PAGE, electro-transferred to PVDF membranes (Millipore) and then probed using primary and horseradish peroxidase-conjugated secondary antibodies. Antibodies against total or phosphorylated 5′ AMP-activated protein kinase (AMPK) were purchased from Cell Signaling Technology (Danvers, Mass.) and used at the manufacturer's recommended dilutions. Proteins were visualized by chemiluminescence with auto-exposure and quantified by densitometric analysis using the FluorChem HD2 from Cell Biosciences (Santa Clara, Calif.).
# MiaPaCa-2 cells [8] = assay: Sytox Green cytotoxicity assay; assay type: cell-based; conditions: MiaPaCa-2, 24 h, 100 μM
# Protocol: Cytotoxicity assay. To determine the cytotoxicity of Mito-Met analogs and other TPP^+-conjugated to a long chain aliphatic hydrocarbon, we used the Sytox assay as described previously. MiaPaCa-2 cells were treated for 24 h, and dead cells were monitored in the presence of 200 nM Sytox Green (Invitrogen). The Sytox method labels the nuclei of dead cells yielding green fluorescence. Fluorescence intensities from the dead cells in 96-well plate were acquired in real time every 15 min after 4 h using a plate reader (BMG Labtech, Inc.) equipped with an atmosphere controller set at 37° C. and 5% CO2:95% air, using a fluorescence detection with 485 nm (excitation) and 535 nm (emission). To measure the total cell number, all of the samples in each treatment group were permeabilized by adding Triton X 100 (0.065%) in the presence of Sytox Green for 3 h, and maximal fluorescence intensities were taken as 100%. Data are represented as a percentage of dead cells after normalization to total cell number for each group.
# [9] = system: MiaPaCa-2 cell 3D spheroids; assay: Three-dimensional spheroid growth in Matrigel; assay type: cell-based, human; conditions: 0.5 μM, compared to Met 10,000 μM
# Protocol: Three-dimensional spheroid cell cultures of PDAC. MiaPaCa-2 cells (5,000) were seeded in 96-well plates containing Matrigel (Corning), used as scaffold. This typical 3D-cell culture system allows spheroids to form within the matrix. […] At days 3, 7, and 14 the wells were observed by bright-field microscopy and images acquired on a Nikon Eclipse Ti inverted microscope (Nikon instrument Inc., NY, USA). Spheroid-forming cells were counted using the Nikon NIS Elements imaging software (Nikon). Data are expressed as mean and SD of number of spheroids.
# MCF-10A cells [10] = assay: Radiosensitization (X-radiation, clonogenic survival) in normal cells; assay type: cell-based; conditions: 1 μM pretreatment
# Protocol: as §3
# FC1242-luc autografts = assay: Orthotopic syngeneic FC1242-luc tumor growth, bioluminescence imaging and calipers; assay type: in vivo, C57BL/6 mice; conditions: for in vivo tumor growth relative to Met: 1 mg/kg daily, intraperitoneal
# Source text: In vivo studies and bioluminescence imaging.
# [11] = mouse
# Protocol: In an initial proof-of-concept experiment, syngeneic KPC cells expressing Firefly luciferase (FC1242-luc) were orthotopically implanted to the pancreas of C57BL/6 mice and tumor growth monitored using bioluminescence imaging (FIG. 15F). Mice orthotopically autografted with FC1242-luc cells were treated daily with 1 mg/kg or 150 mg/kg Met, or 1 mg/kg Mito-Met. […] Serum from these animals was collected, and hepatic and kidney toxicity tested using standard AST, ALT, AP, and BUN assays, respectively.
# [12] = Tissue accumulation in FC1242-luc orthotopic mice; assay type: in vivo; conditions: 1 mg/kg daily for 2 weeks, tissues harvested 3 days after last treatment
# Protocol: FIG. 19. Tissue accumulation of Mito-Met in in vivo FC1242-luc orthotopic mouse model. FC1242-luc orthotopic mice treated with Mito-Met10 (1 mg/kg) daily for 2 weeks. Tissue harvesting and extractions were performed 3 days after the last treatment. Quantitative data on concentrations of Mito-Met after normalization to tissue wet weight are represented as mean±SD, n=5.
# MiaPaCa-2 cells [13] = system: MiaPaCa-2 cells
# Protocol: Cells were grown on 10 cm dishes and treated with the compounds for 24 h in full media.
# Next we investigated the relative uptake of different Mito-Met analogs (Mito-Met2, Mito-Met6, and Mito-Met10) and phenformin in MiaPaCa-2 cells (FIG. 12D). Cells were treated with respective Mito-Met analog (1 μM) for 1 h. Cells were lysed after washing and analyzed for Mito-Met analog by LC-MS.
# [14] = intact MiaPaCa-2, immediately after addition
smiles,measurement,setting,value
CN(C)C(=N)N=C(N)N [Metformin],inhibition at 1000 µM,"MiaPaCa-2 cells [1]; Homo sapiens, MIA PaCa-2, 1,000 μM, read-out: inhibition of cell growth",80%
same,colony formation,MiaPaCa-2 cells [2]; 3 mM,Almost no colony formation
same,IC50,MiaPaCa-2 cells [2],1300 µM
same,concentration that dose-dependently decreased oxygen consumption,MiaPaCa-2 cells [3]; [14],1 to 10 mM
same,PDAC radiosensitivity,MiaPaCa-2 cells [4]; 1 mM,increased radio-sensitization
same,PDAC radiosensitivity,"MiaPaCa-2 cells [4]; 1 mM, listed as Met",increased radiosensitization
same,cell proliferation (confluence) of nonmalignant cells,HaCaT cells,not significantly affected
same,cell proliferation (confluence) of nonmalignant cells,MCF-10A cells [5],not significantly affected
same,concentration that inhibited OCR,mitochondrial complex I [6],"3,000 μM"
N=C(N)NC(=N)NCC[P+](c1ccccc1)(c1ccccc1)c1ccccc1.[Br-] [Mito-Met2],concentration that inhibited OCR,MiaPaCa-2 cells [3],25 µM
N=C(N)NC(=N)NCCCCCCCCCC[P+](c1ccccc1)(c1ccccc1)c1ccccc1.[Br-] [Mito-Met10],fold more effective than Met in inhibiting PDAC proliferation,MiaPaCa-2 cells [1],"~1,000 fold and > 1,000 fold"
same,inhibition at 0.2 µM,"MiaPaCa-2 cells [1]; Homo sapiens, MIA PaCa-2, 0.2 μM, read-out: inhibition of cell growth",70%
same,inhibition at 1 µM,"MiaPaCa-2 cells [1]; Homo sapiens, MIA PaCa-2, 1 μM, read-out: inhibition of cell growth",> 90%
same,IC50,"MiaPaCa-2 cells [1]; Homo sapiens, MIA PaCa-2, MiaPaCa-2, read-out: IC50 (FIG. 12B, cell confluence)",0.84 µM
same,colony formation,MiaPaCa-2 cells [2]; 3 μM,Almost no colony formation
same,IC50,MiaPaCa-2 cells [2],1.1 µM
same,fold more effective than metformin in inhibiting MiaPaCa-2 cell proliferation,"MiaPaCa-2 cells [2]; clonogenic, 24 h treatment (FIG. 5)","~1,000 fold"
same,concentration giving significant decrease in OCR (complex I inhibition),mitochondrial complex I [7],0.75 µM
same,OCR inhibition,MiaPaCa-2 cells [3]; 1 μM,did not inhibit OCR
same,concentration that inhibited OCR,MiaPaCa-2 cells [3],1 µM
same,OCR inhibition,MiaPaCa-2 cells [3]; ≈10 μM,slight inhibition
same,"AMPK activation, fold more potent / lower concentration than metformin",AMPK,"~1,000 fold"
same,cell death (Sytox Green),MiaPaCa-2 cells [8],no detectable cell death
same,spheroid growth,[9],potently inhibited
same,fold lower concentration than Met for enhancement of radiation sensitivity,MiaPaCa-2 cells [4]; 1 μM versus Met 1 mM,"1,000 fold"
same,PDAC radiosensitivity,MiaPaCa-2 cells [4]; 1 μM,as effective as 1 mM Met
same,radiosensitivity in normal cells,MCF-10A cells [10],no radiosensitivity was observed
same,cell proliferation (confluence) of nonmalignant cells,HaCaT cells,not significantly affected
same,cell proliferation (confluence) of nonmalignant cells,MCF-10A cells [5],not significantly affected
same,in vivo tumor growth relative to Met,FC1242-luc autografts,considerably more potent than Met
same,in vivo tumor growth relative to Met,FC1242-luc autografts; listed as Mito-Met,considerably more effective than Met
same,"therapeutic index, fold greater than Met",FC1242-luc autografts; in vivo experiments,"~1,000 fold"
same,toxicity in vivo (hepatic and kidney),[11],neither Met nor the mitochondria-targeted analog Mito-Met elicited toxicity in vivo
same,tissue accumulation,[12],"increased accumulation of this compound in liver, kidney, spleen, and tumor"
same,"difference in intracellular uptake and retention, MiaPaCa-2 and MCF-10A cells",MiaPaCa-2 cells [13]; LC-MS (FIG. 14C),four-fold
same,"cellular uptake, fold higher than phenformin","MiaPaCa-2 cells [13]; MiaPaCa-2, 1 μM, 1 h",~100 fold
same,concentration that inhibited OCR,mitochondrial complex I [6],10 µM
COC1=C(OC)C(=O)C(CCCCCCCCCC[P+](c2ccccc2)(c2ccccc2)c2ccccc2)=C(C)C1=O [Mito-Q],cell death (Sytox Green),MiaPaCa-2 cells [8],considerably more cytotoxic
CC1(C)CC(OCCCCC[P+](c2ccccc2)(c2ccccc2)c2ccccc2)CC(C)(C)N1[O].[Br-] [Mito-Tempol],cell death (Sytox Green),MiaPaCa-2 cells [8],considerably more cytotoxic
"[H]/N=C(/N)N/C(=N/[H])NCCc1ccccc1 [Phenformin, reference compound]",concentration inhibiting OCR to the same extent as Met,MiaPaCa-2 cells [3]; [14],ten-fold lower concentration
